Data from patent publication US9109001B2, “3′,5′-cyclic phosphoramidate prodrugs for HCV infection” (priority 2012, dated 2015).
Like-named read-outs stand apart in the source and are kept apart here.

Tests used:
[1] = test system: fresh human hepatocytes; test: Release of active metabolite in fresh human hepatocytes; type: in vitro ADME; conditions: 10 μM
Procedure: Assay for the Release of Active Metabolite in Primary Hepatocytes: Plates of fresh human and mouse hepatocytes were obtained on ice. The medium was removed and replaced with hepatocyte culture medium (William's E supplemented with penicillin-streptomycin, 1% L-glutamine, 1% insulin-transferrin-selenium and 0.1 μM Dexamethasone (Invitrogen) or with Invitro GRO HI medium complemented with Torpedo antibiotics (Celsis)). Cells were left overnight in an incubator at 37° C. to acclimatize to culture and the medium.
Hepatocyte incubations were conducted at a final volume of 0.5 mL hepatocyte culture medium/well (0.8 million cells/well for human and 0.5 million cells/well for mouse; 12 well plate no overlay, collagen coat). Culture medium from overnight incubation of cells was removed and replaced with fresh medium, pre-warmed to 37° C., containing 10 μM of test compound from a stock solution in DMSO (final DMSO concentration was 0.1%). At each specific time point, incubation medium was removed and cell monolayers were carefully washed two times with ice-cold PBS. Following the last wash, all PBS was carefully removed and 1.0 mL of extraction solution (ice-cold 70% methanol/30% water) added. Cells were scraped off and suspended in the extraction solution, transferred to 2 mL polypropylene microfuge tubes and intracellular contents extracted overnight at −20° C.
After the overnight treatment the cellular extracts were prepared by centrifugation at 16,000×g for 10 min to remove cellular debris. The remaining sample was then dried using a refrigerated centrivap concentrator. Dry extracts were reconstituted in 1000 μL of HPLC-grade water and centrifuged at 16,000×g for 10 min. Aliquots (100 μL each) of the supernatant were transferred into a 96 well plate and internal standard (4 ng/mL final concentration) was added as the internal standard (IS) for LC-MS/MS analysis.
The incubation time points were 6, 24 and 48 hours for human hepatocytes and 1, 4, 8, 12 and 24 hours for mouse hepatocytes.

[2] = test system: Zluc cells; test: Cytotoxicity evaluation (CellTiter-Blue Cell Viability Assay); type: cell-based, human; conditions: read-out: HCV Replicon CC50
[3] = Stability in human liver microsomes; type: in vitro ADME; conditions: 10 μM, 1.0 mg/mL protein, NADPH, 60 min; percent unchanged
Procedure: Stability in Liver and Intestinal Subcellular Fractions: Stability of test compounds were determined in subcellular fractions (microsomes and S9) of human liver and intestine in duplicate for each matrix. Pooled liver and intestinal microsomal, intestinal and liver S9 proteins (1.0 mg/mL), suspended in incubation buffer (100 mM potassium phosphate, pH 7.4, 5 mM MgCl2, and 0.1 mM EDTA), were preincubated for 5 min at 37° C. with 10 μM of a test compound from a 10 mM stock solution in DMSO (final DMSO concentration was 0.1%); the reaction was initiated by the addition of NADPH (3 mM final concentration). At specific times (0 and 60 min), 0.1 mL samples were taken and the reaction terminated by the addition of 4 volumes of stop solution (acetonitrile with 500 ng/mL carbutamide as an internal standard). The samples were vortexed for 30 sec and then centrifuged at 16,000 g for 10 min. 100 μL of supernatants were transferred to 96 deep-well plates preloaded with 100 μL distilled water and analyzed after mixing by LC-MS/MS. The MS peak area ratio of the test compound versus the internal standard was calculated and percent unchanged test compound over 60 minutes was calculated using this ratio.

[4] = Stability in fresh human whole blood; type: in vitro ADME; conditions: 0.5 μM, percent unchanged test compound
Procedure: (§1) Stability in Fresh Whole Blood: Stability of test compounds were determined in fresh human whole blood with K2EDTA as the anticoagulant (stored refrigerated at 2-8° C. and used within 7 days of receipt). The experiment was conducted with three replicates for each time point. Whole blood, pre-incubated at 37° C. for 10-15 minutes, was fortified with a solution of test compound for a final concentration of 0.5 μM and mixed for 30 sec. At intervals (0, 0.5, 1 and 2 hr), three 50-μL aliquots were combined with 200 μL (each) of an ice-cold solution of the internal standard (carbutamide 500 ng/mL in acetonitrile). The samples were vortexed for 30 sec and then centrifuged at 16,100 g for 5 min. The supernatant was analyzed by LC-MS/MS. The MS peak area ratio of the test compound versus the internal standard was calculated and percent unchanged test compound was calculated for each time point using this ratio.

[5] = Stability in simulated intestinal fluid; type: in vitro ADME; conditions: 100 μM, 2 hours at 37° C.; percent of peak area at time zero
Procedure: Stability in Simulated Gastric and Intestinal Fluids: Simulated gastric and intestinal fluids containing pepsin and pancreatin respectively were prepared according to the U.S. Pharmacopoeia USP291 procedure (www.pharmacopeia.cn/v29240/usp29nf24s0_ris1s126.html). Test compound (final concentration 100 μM) was incubated in duplicate in the appropriate fluid for 2 hours at 37° C. The samples were quenched with 200 μl cold acetonitrile, vortexed for 30 seconds and then centrifuged at 16,100 g for 10 min. The supernatants were analyzed by HPLC on a C-18 column with UV detection at 252 nm. The time 0 samples were prepared by adding SGF or SIF fluid to the quenching solvent followed by the test compound. Stability of the compound was determined by peak area the test compound after incubation and calculated as percent of the peak area observed at time zero.

[6] = Stability in mouse blood; type: in vitro ADME; conditions: on ice, percent unchanged test compound
Procedure: as §1
The stability in mouse blood was determined on ice at 0, 0.5 and 1 hr as above.

[7] = test system: HCV genotype 1b replicon; test: HCV Replicon Assay; type: cell-based
Procedure: Huh-7-derived cell line (Zluc) that harbors an HCV genotype 1b replicon and a luciferase reporter gene was grown in Dulbecco's Modified Eagle Medium (DMEM) supplemented with 10% fetal bovine serum, 2 mM GlutaMAX, 1% MEM nonessential amino acids, 100 IU/mL penicillin, 100 μg/mL streptomycin, and 0.5 mg/mL Geneticin® (G418). For dose response testing the cells were seeded in 96-well plates at 7.5×10^3 cells per well in a volume of 50 μL, and incubated at 37° C./5% CO2. Drug solutions were made up freshly in Huh-7 media as 2× stocks. Ten additional 5-fold dilutions were prepared from these stocks in DMEM without G418. At least three hours after Zluc cells were seeded, drug treatment was initiated by adding 50 μL of drug dilutions to the plates in duplicate. Final concentrations of drug ranged from 100 μM to […]. Cells were then incubated at 37° C./5% CO2. Alternatively, compounds were tested at two concentrations (1 μM and 10 μM). […] For this, media was removed from the plates via gentle tapping. Fifty microliters of ONE-glo luciferase assay reagent was added to each well. The plates were shaken gently for 3 min at room temperature and luminescence was measured on a Victor^3 V 1420 multilabel counter (Perkin Elmer) with a 1 second read time using a 700 nm cut-off filter. The EC50 values were calculated from dose response curves from the resulting best-fit equations determined by Microsoft Excel and XLfit 4.1 software. When screening at two fixed concentrations, the results were expressed as % inhibition at 1 μM and 10 μM.

[8] = test system: Huh-7 cells; test: Release of active metabolite in Huh-7 cells; type: in vitro ADME, human; conditions: Table 6, AUC0-72
Procedure: Assay for the Release of Active Metabolite in Huh-7 Cells. Huh-7 cells were plated in 1 mL culture medium (DMEM, containing glucose, L-glutamine and sodium pyruvate, 10% FBS, 100 IU/mL penicillin, 100 μg/mL streptomycin, 2 mM GlutaMAX, 1% MEM non-essential amino acids) at the concentration 0.8, 0.4 and 0.2 million cells per well on 6 well plates for 24, 48 and 72 hr treatment, respectively. Plated cells were incubated overnight at 37° C. in an incubator.
The following morning test compound was diluted to 20 μM from a stock solution in DMSO in fresh culture medium pre-warmed to 37° C. and 1 mL of the solution/well was added to cells. A final medium volume per well was 2.0 mL, test compound concentration in well was 10 μM and final DMSO concentration was 0.1%.
After 24, 48 or 72 hr, the medium was carefully removed and cell monolayers were washed twice with 2 mL ice-cold PBS per well. Following the last wash, all PBS was carefully removed and 1.0 mL of extraction solution (ice-cold 70% methanol) added. The plate was tightly covered with Parafilm, plastic plate cover and Parafilm again and an intracellular content was extracted at −20° C. for 24 hr.
After 24 hr extracts were transferred into polypropylene microfuge tubes and dry on a refrigerated centrivap concentrator. Dry residues were reconstituted in 250 μL of HPLC-grade water and centrifuged at 16,000×g for 10 min. Aliquots (100 μL each) of the supernatants were transferred into a 96 well plate and internal standard (4 ng/mL final concentration) was added as the internal standard (IS) for LC-MS/MS analysis.

[9] = target: T1, carboxylesterase 1 (CES1) (Homo sapiens, UniProt P23141); test: CES1 hydrolysis assay; conditions: 100 μM compound, 37° C.
T1 sequence (P23141 18-567): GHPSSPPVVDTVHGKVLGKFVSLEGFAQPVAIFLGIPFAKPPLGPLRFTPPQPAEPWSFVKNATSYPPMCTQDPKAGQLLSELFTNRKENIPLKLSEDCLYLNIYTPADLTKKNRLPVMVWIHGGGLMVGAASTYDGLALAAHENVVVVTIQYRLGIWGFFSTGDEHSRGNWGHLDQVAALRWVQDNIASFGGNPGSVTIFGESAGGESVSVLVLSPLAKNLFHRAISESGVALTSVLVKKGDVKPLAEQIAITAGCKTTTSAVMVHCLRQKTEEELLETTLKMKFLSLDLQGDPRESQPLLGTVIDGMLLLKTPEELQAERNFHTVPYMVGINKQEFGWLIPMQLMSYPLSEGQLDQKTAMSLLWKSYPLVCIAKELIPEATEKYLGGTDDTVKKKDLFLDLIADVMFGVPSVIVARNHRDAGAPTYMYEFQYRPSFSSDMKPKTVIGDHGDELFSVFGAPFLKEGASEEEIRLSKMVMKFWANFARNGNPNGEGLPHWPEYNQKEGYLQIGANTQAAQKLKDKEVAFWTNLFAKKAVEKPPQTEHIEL
Procedure: (§2) CES1 assay was performed at 37° C. in the reaction mixture containing 50 mM Tris/HCl buffer pH 7.5 and 100 μM of the compound. Reaction was started by addition of the CES1 to the final concentration 0.01 μg/mL. 100 μL aliquots were taken after 0.5 min, 3 hrs and 21 hrs of the incubation and the reaction was stopped by mixing with 100 μl of the ice-cold methanol prior to HPLC analysis.
(§3) Samples were analyzed by HPLC using 5 μC-18, 4.6×250 mm Phenomenex® Columbus column (Phenomenex USA, CA). The mobile phase consisted of buffer A (25 mM potassium phosphate with 5 mM tetrabutylammonium dihydrogen phosphate pH 6.3) and buffer B (100% methanol).

[10] = target: T2, cathepsin A (CatA) (Homo sapiens, UniProt P10619); test: CatA hydrolysis assay; type: in vitro ADME; conditions: for CatA hydrolysis @ 18 h: 100 μM compound, 37° C.
T2 sequence (P10619 29-326 limits assumed): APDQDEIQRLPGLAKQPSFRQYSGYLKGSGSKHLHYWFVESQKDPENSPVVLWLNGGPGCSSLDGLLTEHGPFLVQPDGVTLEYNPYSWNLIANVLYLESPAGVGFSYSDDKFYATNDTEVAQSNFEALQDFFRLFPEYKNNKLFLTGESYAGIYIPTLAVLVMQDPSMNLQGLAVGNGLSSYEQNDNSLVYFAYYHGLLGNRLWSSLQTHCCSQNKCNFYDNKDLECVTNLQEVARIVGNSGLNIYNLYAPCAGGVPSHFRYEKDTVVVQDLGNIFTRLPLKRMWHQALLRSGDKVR
T2 sequence (P10619 327-480 limits assumed): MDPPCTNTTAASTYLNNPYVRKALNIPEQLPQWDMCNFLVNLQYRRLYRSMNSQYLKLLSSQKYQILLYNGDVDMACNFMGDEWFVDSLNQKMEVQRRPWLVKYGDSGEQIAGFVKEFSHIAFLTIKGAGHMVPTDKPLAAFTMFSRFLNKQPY
Procedure: CatA, cathepsin L (CatL) and CES1 were purchased from R & D Systems (Minneapolis, Minn.). Prior to the enzymatic hydrolysis reactions, CatA was activated according to the manufacturer's instruction. Briefly, CatA (0.05 μg/μL) was incubated with CatL (0.005 μg/μL) for 30 min at 37° C. in 25 mM MES pH 6.0 containing 5 mM DTT. The reaction was stopped by addition of the CatL specific inhibitor E64 (10 μM).
The CatA assay was performed at 37° C. The reaction mixture contained 25 mM MES buffer pH 6.0, 100 mM NaCl, 4 mM DTT and 100 μM of the compound. The reaction was started by addition of the activated CatA enzyme to a final concentration of 0.005 μg/μL. One hundred-μL aliquots were taken after 0.5 min, 3 hrs and 18 hrs of incubation. Reactions were stopped by mixing the sample with an equal volume of ice-cold methanol, and were loaded on a HPLC for analysis.
as §3

[11] = Liver TP (Table 6); type: in vivo; conditions: liver triphosphate, species and dose not stated
[12] = target: T1, carboxylesterase 1 (CES1)
Procedure: as §2, §3

Row | SMILES | FHH TP AUC (pmol · hr/mill cells) [1] | CC50 [2] | Stability HLM (1 hr) [3] | Stability WB_Human (37° C.; 2 hr) [4] | Stability SIF [5] | Stability WB_Mouse (ice; 1 hr) [6] | EC50 ([7]; Zluc (Huh-7-derived) cells, HCV genotype 1b replicon, luciferase reporter, 72 hours, read-out: HCV Replicon EC50) | Huh-7 pmol*hr/10^6 cells AUC0-72 [8] | CES1 hydrolysis 3 h ([9]; 3 h) | CES1 hydrolysis 21 h ([9]; 21 h) | CatA hydrolysis @ 18 h [10] | CatA cleavage efficiency versus RP diastereoisomer ([10]; GS-7977 (SP) relative to PSI-7976 (RP)) | EC50 ([7]; Hepatitis C virus, Huh-7, Table 6, genotype 1b HCV replicon-bearing Huh-7 cells, read-out: EC50) | Liver TP [11] | Hydrolysis by CES1 (in words) [12] | EC50 ([7]; Table 6, genotype 1b HCV replicon-bearing Huh-7 cells, read-out: EC50)
1 | CCOc1nc(N)nc2c1ncn2[C@@H]1O[C@@H]2COP(=O)(NCCC(=O)OC(C)C)O[C@H]2[C@@]1(C)F (single isomer, unassigned) [Compound 2 Diastereomer 2] | 336 pmol · hr/mill cells | > 50 µM | 5.7% | 91% | 91% | 60% | 250 to 1000 nM |  |  |  |  |  |  |  |  | 
2 | CC(C)OC(=O)[C@H](C)N[P@](=O)(OC[C@H]1O[C@@H](n2ccc(=O)[nH]c2=O)[C@](C)(F)[C@@H]1O)Oc1ccccc1 (single isomer, unassigned) [GS-7977] |  |  |  |  |  |  |  | 63555 pmol*hr/10^6 cells | 12%/3 h; | 15%/21 h | 100% @ | 10 times | 250 nM |  |  | 
3 | CC(C)OC(=O)[C@H](C)N[P@@](=O)(OC[C@H]1O[C@@H](n2ccc(=O)[nH]c2=O)[C@](C)(F)[C@@H]1O)Oc1ccccc1 [PSI-7976] |  |  |  |  |  |  |  | 6527 pmol*hr/10^6 cells |  |  | 10% @ |  |  | 310 pmol·h/g | preferentially hydrolyzed | 2080 nM
